Source: PMC11790914, “Chemogenomics for steroid hormone receptors (NR3)” (Communications Chemistry, 2025)
Values joined by “and” are separate entries in the source; they are usually repeats but may differ in a detail not shown here. Equal entries are not always repeated.

How the values were obtained:
HEK293T cells [1] = assay: Cytotoxicity: necrosis induction (red fluorescent dye for permeable plasma membranes); format: cell-based; settings: 1 µM, 24 h, necrotic cell count normalized to 0.1% DMSO, single replicates;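 also: compounds applied in DMEM high glucose with 0.1% FCS and 0.1% DMSO, necrotic HEK293T cells counted by red staining of cells whose plasma membranes had become permeable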
Gal4-VP16 = format: cell-based; settings: 1 µM; vs. DMSO ctrl; single replicates n=1-3
ABL1 = target: T1, ABL1 (Homo sapiens, UniProt P00519); assay: Liability panel screening by DSF: ABL1; format: binding; settings: DSF, 20 µM, n=2; read-out: Mean ΔTM ABL1
T1 construct: made in house
T1 sequence (P00519 whole entry, species assumed): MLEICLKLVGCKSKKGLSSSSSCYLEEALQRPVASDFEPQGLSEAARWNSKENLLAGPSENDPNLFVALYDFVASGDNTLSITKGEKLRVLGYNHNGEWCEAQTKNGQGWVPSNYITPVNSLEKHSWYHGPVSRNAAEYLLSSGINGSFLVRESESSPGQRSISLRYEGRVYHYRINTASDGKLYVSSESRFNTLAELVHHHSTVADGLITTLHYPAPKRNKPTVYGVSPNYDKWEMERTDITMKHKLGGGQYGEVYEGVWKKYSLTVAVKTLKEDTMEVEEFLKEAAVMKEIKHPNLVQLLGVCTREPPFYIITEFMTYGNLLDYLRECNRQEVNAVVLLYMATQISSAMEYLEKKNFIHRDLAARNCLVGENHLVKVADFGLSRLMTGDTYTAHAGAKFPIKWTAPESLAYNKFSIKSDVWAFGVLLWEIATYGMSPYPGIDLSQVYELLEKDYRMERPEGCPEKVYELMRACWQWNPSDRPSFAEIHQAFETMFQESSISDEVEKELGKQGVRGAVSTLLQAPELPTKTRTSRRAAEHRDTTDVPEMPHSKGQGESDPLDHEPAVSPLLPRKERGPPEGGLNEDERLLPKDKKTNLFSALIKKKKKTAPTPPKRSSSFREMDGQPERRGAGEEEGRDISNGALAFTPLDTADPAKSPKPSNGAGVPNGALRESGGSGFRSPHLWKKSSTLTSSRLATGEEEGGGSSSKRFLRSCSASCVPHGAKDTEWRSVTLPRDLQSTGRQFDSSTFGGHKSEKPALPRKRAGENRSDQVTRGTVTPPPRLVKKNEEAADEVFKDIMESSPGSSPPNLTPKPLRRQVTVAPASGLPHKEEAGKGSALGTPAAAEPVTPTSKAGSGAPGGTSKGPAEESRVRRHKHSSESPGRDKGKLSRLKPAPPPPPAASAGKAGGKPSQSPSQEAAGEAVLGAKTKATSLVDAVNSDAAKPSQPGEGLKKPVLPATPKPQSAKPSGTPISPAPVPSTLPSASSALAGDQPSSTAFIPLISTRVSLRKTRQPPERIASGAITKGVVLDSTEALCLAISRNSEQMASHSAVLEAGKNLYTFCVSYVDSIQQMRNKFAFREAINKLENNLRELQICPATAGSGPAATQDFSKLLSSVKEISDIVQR
Outline: (§1)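 ∆Tm in K was taken from Boltzmann-fitted unfolding inflection points, run in duplicate with a temperature ramp of 3 °C per minute up to 85 °C. Each recombinant protein (2 µM) was in HEPES 10 mM pH 7.5 and NaCl 500 mM, with SYPRO Orange dye at 1:1000.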

AURKA = target: T2, AURKA (Homo sapiens, UniProt O14965); assay: Liability panel screening by DSF: AURKA; format: binding; settings: DSF, 20 µM, n=2; read-out: Mean ΔTM AURKA
T2 construct: made in house
T2 sequence (O14965 1-403): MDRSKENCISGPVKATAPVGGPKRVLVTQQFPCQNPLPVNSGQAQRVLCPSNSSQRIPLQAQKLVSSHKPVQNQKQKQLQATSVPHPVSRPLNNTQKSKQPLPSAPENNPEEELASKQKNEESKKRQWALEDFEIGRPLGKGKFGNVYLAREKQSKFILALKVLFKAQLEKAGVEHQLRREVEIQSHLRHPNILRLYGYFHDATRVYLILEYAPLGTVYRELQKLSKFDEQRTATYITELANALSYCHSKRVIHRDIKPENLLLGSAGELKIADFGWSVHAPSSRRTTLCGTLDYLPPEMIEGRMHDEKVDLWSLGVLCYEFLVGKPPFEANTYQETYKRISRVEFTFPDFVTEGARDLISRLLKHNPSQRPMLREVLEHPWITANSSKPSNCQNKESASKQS
Outline: as §1

CDK2 = target: T3, CDK2 (Homo sapiens, UniProt P24941); assay: Liability panel screening by DSF: CDK2; format: binding; settings: DSF, 20 µM, n=2; read-out: Mean ΔTM CDK2
T3 construct: made in house
Outline: as §1

FGFR3 = target: T4, FGFR3 (Homo sapiens, UniProt P22607); assay: Liability panel screening by DSF: FGFR3; format: binding; settings: DSF, 20 µM, n=2; read-out: Mean ΔTM FGFR3
T4 construct: made in house
T4 sequence (P22607 23-806, species assumed): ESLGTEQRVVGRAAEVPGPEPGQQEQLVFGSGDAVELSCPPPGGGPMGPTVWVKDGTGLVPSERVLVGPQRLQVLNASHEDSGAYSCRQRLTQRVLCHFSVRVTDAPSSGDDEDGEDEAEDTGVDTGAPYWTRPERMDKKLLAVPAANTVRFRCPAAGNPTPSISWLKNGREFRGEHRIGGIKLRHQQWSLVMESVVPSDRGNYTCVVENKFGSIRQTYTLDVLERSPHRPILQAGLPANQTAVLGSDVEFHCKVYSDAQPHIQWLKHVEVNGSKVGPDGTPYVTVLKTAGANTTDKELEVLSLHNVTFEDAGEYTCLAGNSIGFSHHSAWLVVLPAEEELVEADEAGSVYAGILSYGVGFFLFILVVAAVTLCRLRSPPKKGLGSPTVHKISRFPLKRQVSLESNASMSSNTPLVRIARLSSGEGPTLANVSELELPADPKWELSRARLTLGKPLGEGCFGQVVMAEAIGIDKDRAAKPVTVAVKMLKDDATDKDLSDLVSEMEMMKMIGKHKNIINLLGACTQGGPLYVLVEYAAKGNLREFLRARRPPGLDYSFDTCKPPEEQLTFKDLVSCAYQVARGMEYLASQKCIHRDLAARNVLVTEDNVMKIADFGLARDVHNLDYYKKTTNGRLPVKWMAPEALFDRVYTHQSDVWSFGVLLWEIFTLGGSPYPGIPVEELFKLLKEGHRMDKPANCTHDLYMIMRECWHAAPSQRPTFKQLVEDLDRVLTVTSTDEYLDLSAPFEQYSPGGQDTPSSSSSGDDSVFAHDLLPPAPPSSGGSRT
Outline: as §1

GSK3B = target: T5, GSK3B (Homo sapiens, UniProt P49841); assay: Liability panel screening by DSF: GSK3B; format: binding; settings: DSF, 20 µM, n=2; read-out: Mean ΔTM GSK3B
T5 construct: made in house
T5 sequence (P49841 whole entry, species assumed): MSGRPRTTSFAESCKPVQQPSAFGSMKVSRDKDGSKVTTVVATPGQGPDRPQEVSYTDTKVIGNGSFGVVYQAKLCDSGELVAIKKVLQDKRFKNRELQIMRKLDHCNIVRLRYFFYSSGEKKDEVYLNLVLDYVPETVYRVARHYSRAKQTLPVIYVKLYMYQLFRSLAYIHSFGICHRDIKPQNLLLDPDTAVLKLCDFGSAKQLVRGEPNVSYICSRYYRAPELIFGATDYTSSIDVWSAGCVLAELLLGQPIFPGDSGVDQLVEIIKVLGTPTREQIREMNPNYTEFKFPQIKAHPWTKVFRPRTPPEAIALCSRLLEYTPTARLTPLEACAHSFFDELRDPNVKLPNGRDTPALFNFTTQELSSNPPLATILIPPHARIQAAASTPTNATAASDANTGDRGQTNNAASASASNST

BRD4 = target: T6, BRD4 (Homo sapiens, UniProt O60885); assay: Liability panel screening by DSF: BRD4; format: binding; settings: DSF, 20 µM, n=2; read-out: Mean ΔTM BRD4
T6 construct: This panel comprised ten highly ligandable kinases and bromodomains; made in house
Outline: as §1

BRPF1 = target: T7, BRPF1 (Homo sapiens, UniProt P55201); assay: Liability panel screening by DSF: BRPF1; format: binding; settings: DSF, 20 µM, n=2; read-out: Mean ΔTM BRPF1
T7 construct: This panel comprised ten highly ligandable kinases and bromodomains; made in house
T7 sequence (P55201 628-732 limits assumed): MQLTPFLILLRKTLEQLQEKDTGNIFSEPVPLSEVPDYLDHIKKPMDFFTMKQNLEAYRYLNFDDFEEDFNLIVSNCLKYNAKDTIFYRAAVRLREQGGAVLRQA
Outline: as §1

CSNK1D = target: T8, CSNK1D (Homo sapiens, UniProt P48730); assay: Liability panel screening by DSF: CSNK1D; format: binding; settings: DSF, 20 µM, n=2; read-out: Mean ΔTM CSNK1D
T8 construct: made in house
T8 sequence (P48730 whole entry, species assumed): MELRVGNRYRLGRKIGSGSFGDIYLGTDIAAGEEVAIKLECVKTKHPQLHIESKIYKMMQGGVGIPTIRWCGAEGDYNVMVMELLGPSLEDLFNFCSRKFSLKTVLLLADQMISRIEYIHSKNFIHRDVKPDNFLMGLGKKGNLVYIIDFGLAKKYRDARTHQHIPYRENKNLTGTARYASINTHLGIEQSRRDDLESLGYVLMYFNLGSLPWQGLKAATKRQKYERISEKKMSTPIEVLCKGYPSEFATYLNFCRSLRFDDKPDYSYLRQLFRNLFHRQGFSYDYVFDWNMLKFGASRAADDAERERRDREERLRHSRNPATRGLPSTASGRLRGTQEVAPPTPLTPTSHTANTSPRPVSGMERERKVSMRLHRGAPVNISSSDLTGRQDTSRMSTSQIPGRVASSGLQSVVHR
Outline: as §1

MAPK1 = target: T9, MAPK1 (Homo sapiens, UniProt P28482); assay: Liability panel screening by DSF: MAPK1; format: binding; settings: DSF, 20 µM, n=2; read-out: Mean ΔTM MAPK1
T9 construct: made in house
T9 sequence (P28482 whole entry, species assumed): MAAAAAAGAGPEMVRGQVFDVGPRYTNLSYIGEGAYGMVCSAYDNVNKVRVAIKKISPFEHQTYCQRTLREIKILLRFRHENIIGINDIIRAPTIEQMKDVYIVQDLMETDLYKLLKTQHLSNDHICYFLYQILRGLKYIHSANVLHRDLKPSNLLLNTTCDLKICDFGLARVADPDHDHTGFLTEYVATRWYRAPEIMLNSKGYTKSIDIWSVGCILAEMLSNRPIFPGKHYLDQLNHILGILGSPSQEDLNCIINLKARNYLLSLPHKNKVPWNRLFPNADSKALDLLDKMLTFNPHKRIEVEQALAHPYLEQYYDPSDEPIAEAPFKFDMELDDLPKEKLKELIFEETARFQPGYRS
Outline: as §1

TRIM24 = target: T10, TRIM24 (Homo sapiens, UniProt O15164); assay: Liability panel screening by DSF: TRIM24; format: binding; settings: DSF, 20 µM, n=2; read-out: Mean ΔTM TRIM24
T10 construct: This panel comprised ten highly ligandable kinases and bromodomains; made in house
T10 sequence (O15164 899-1004 limits assumed): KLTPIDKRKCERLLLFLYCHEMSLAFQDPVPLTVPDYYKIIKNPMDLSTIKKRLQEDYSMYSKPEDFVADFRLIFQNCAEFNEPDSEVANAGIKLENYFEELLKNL
Outline: as §1

[2] = tested on: NF-κB activity in HEK293 NF-κB reporter cells; assay: NF-kB activity assay (GFP reporter, ionomycin/PMA); format: cell-based; settings: n=3
Outline: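 Reporter readout: GFP-expressing cells normalized to confluence, imaged every 90 min across 24 h after ionomycin (100 ng/mL)/PMA (10 ng/mL) stimulation of HEK293 cells pre-treated 4 h with compound (0.1% DMSO); triplicate independent experiments.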

[3] = tested on: ATF6 activity in Hela ATF6 reporter cells; assay: Endoplasmic reticulum stress assay (ATF6 Renilla luciferase reporter, tunicamycin); format: cell-based; settings: for activity at 1 µM: Homo sapiens, HeLa, single replicates n=1 to n=5, read-out: ER stress [rel. ATF6 activity]
Outline: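 ER stress was induced by 100 ng/mL tunicamycin added 4 h after compound (0.1% DMSO) to HeLa ATF6 reporter cells. After 18 h more, Renilla luciferase signal was read and expressed relative to DMSO control, n=5 biological replicates.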

HEK293T cells [4] = assay: Cytotoxicity: metabolic activity (WST-8 / CCK-8 assay); settings: 1 µM; HEK293T, 24 h; WST-8; normalized to 0.1% DMSO; single replicates
Method: Cells were incubated with the test compounds at the indicated concentrations solubilized with 0.1% DMSO for 24 h. Growth-rate was determined based on the change in confluence over 24 h normalized to the change in confluence of cells treated with the 0.1% DMSO control (n = 10). Metabolic activity was determined with a water-soluble tetrazolium-8 (WST-8) assay (n = 8) after 24 h treatment. Apoptotic cells were detected with a fluorogenic DNA dye coupled to the caspase-3/7 recognition sequence (DEVD) after 24 h treatment and the apoptotic cell count was normalized to 0.1% DMSO treated cells (n = 6).
HEK293T cells (German Collection of Microorganisms and Cell Culture GmbH, DSMZ; #ACC305) were cultured in DMEM high glucose, supplemented with 10% fetal calf serum (FCS), sodium pyruvate (1 mM), penicillin (100 µ/mL) and streptomycin (100 µg/mL) at 37 °C and 5% (v/v) CO2, and seeded in pre-coated (10 µg/mL collagen G solution (Merck KgaA; #L7213) for 30 min at 37 °C) 96-well plates (2 × 10^5 cells per well). After 24 h, the cells were treated with the respective NR3 CG compound candidate at the recommended concentration, bexarotene (100 µM) or doxorubicin (30 µM) as positive controls in DMEM high glucose supplemented with 0.1% FCS, penicillin (100 µ/mL), streptomycin (100 µg/mL) and 0.1% DMSO, or 0.1% DMSO alone as an untreated control. Each sample was prepared in at least four biologically independent replicates. […] Thereafter, the medium was aspirated and the cells were incubated for 3 h with 90 µL DMEM high glucose supplemented with 0.2% FCS, penicillin (100 µ/mL) and streptomycin (100 µg/mL) and additionally containing 10 µL Cell Counting Kit 8 solution (CCK-8; MedChemExpress, Monmouth Junction, New York, USA; #HY-K0301), and absorbance was measured at 1 h, 2 h and 3 h of incubation at 450 nm on a Tecan Spark Cyto to assess metabolic activity of the cells. Before drug administration, after the first medium exchange, 24 h after drug administration, and after fluorescence imaging cell confluence was assessed using the Tecan Spark Cyto, to account for changes in cell confluence due to drug administration and cell handling. Compound effects on cell confluence, apoptosis, metabolic activity and necrosis were normalized to the vehicle control of each biological replicate individually.

HEK293T cells [5] = assay: Cytotoxicity: growth-rate (change in confluence over 24 h); settings: 1 µM, normalized to 0.1% DMSO control, single replicates (n=1...)
HEK293T cells [6] = assay: Cytotoxicity: apoptosis induction (caspase-3/7 DEVD fluorogenic DNA dye); settings: 1 µM; HEK293T, 24 h; apoptotic cell count normalized to 0.1% DMSO; single replicates

Row | SMILES | Necrosis induction [NI] (HEK293T cells [1]) | ΔTm at 20 µM (ABL1) | ΔTm at 20 µM (AURKA) | ΔTm at 20 µM (CDK2) | ΔTm at 20 µM (FGFR3) | ΔTm at 20 µM (GSK3B) | ΔTm at 20 µM (BRD4) | ΔTm at 20 µM (BRPF1) | ΔTm at 20 µM (CSNK1D) | ΔTm at 20 µM (MAPK1) | ΔTm at 20 µM (TRIM24) | Mean NFκB response ([2]; 1 µM, 1,5 h) | Mean NFκB response ([2]; 1 µM, 4,5 h) | Mean NFκB response ([2]; 1 µM, 7,5 h) | Mean NFκB response ([2]; 1 µM, 10,5 h) | Mean NFκB response ([2]; 1 µM, 13,5 h) | Mean NFκB response ([2]; 1 µM, 16,6 h) | Mean NFκB response ([2]; 1 µM, 19,5 h) | Mean NFκB response ([2]; 1 µM, 22,5 h) | Mean NFκB response ([2]; 1 µM, 3 h) | other results
1 | COC(=O)[C@@H]1CC2=CC(=O)CC[C@]2(C)[C@@]23O[C@@H]2C[C@@]2(C)[C@@H](CC[C@@]24CCC(=O)O4)[C@H]13 [Eplerenone] | 1.05 and 1.24 and 1.00 and 0.99 | 0.55 °C | -0.81 °C | -0.21 °C | 1.06 °C | -0.8 °C | -1.74 °C | -1.07 °C | 0.47 °C | 0.21 °C | -0.62 °C | 2599.33 GFP+-cells/confluence ∙ 1000 | 2970.00 GFP+-cells/confluence ∙ 1000 | 5786.00 GFP+-cells/confluence ∙ 1000 | 15820.00 GFP+-cells/confluence ∙ 1000 | 23870.00 GFP+-cells/confluence ∙ 1000 | 30236.67 GFP+-cells/confluence ∙ 1000 | 34356.67 GFP+-cells/confluence ∙ 1000 | 38213.33 GFP+-cells/confluence ∙ 1000 | 2606.00 GFP+-cells/confluence ∙ 1000 | VP16 control [fold reporter gene activity] (Gal4-VP16): 1.24 fold reporter gene activity and 0.82 fold reporter gene activity and 1.00 fold reporter gene activity; Mean NFκB response ([2]; 1 µM, 6 h): 3625.00 GFP+-cells/confluence ∙ 1000; Mean NFκB response ([2]; 1 µM, 9 h): 10753.00 GFP+-cells/confluence ∙ 1000; Mean NFκB response ([2]; 1 µM, 12 h): 20210.00 GFP+-cells/confluence ∙ 1000; Mean NFκB response ([2]; 1 µM, 15 h): 27316.67 GFP+-cells/confluence ∙ 1000; Mean NFκB response ([2]; 1 µM, 18 h): 32426.67 GFP+-cells/confluence ∙ 1000; Mean NFκB response ([2]; 1 µM, 21 h): 36556.67 GFP+-cells/confluence ∙ 1000; Mean NFκB response ([2]; 1 µM, 24 h): 39176.67 GFP+-cells/confluence ∙ 1000; activity at 1 µM [3]: 96%; Metabolic activity [MA] (HEK293T cells [4]): 1.06 and 1.03 and 0.91 and 0.99 (3×) and 0.98 and 1.09; Growth rate [GR] (HEK293T cells [5]): 0.85 and 4.28 and 0.92 and 1.11 and 0.73 and 0.84 and 0.96 and 4.53 and 0.57 and 31.96; Apoptosis induction [AI] (HEK293T cells [6]): 0.96 and 0.85 and 1.29 and 1.36 and 1.16 and 1.24
2 | Oc1ccc(-c2nc3cc(O)cc(Br)c3o2)cc1 [WAY200070] | 0.70 and 0.57 and 0.78 and 0.74 | 2.05 °C | 0.19 °C | 1.93 °C | 1.16 °C | 3.58 °C | 0.55 °C | 2.12 °C | 2.57 °C | -0.9 °C | 0.24 °C | 2392.96 GFP+-cells/confluence ∙ 1000 | 3166.63 GFP+-cells/confluence ∙ 1000 | 7710.70 GFP+-cells/confluence ∙ 1000 | 19182.75 GFP+-cells/confluence ∙ 1000 | 27828.42 GFP+-cells/confluence ∙ 1000 | 34347.41 GFP+-cells/confluence ∙ 1000 | 38770.94 GFP+-cells/confluence ∙ 1000 | 41785.25 GFP+-cells/confluence ∙ 1000 | 2570.72 GFP+-cells/confluence ∙ 1000 | Mean NFκB response ([2]; 1 µM, 6 h): 4284.26 GFP+-cells/confluence ∙ 1000; Mean NFκB response ([2]; 1 µM, 9 h): 13724.58 GFP+-cells/confluence ∙ 1000; Mean NFκB response ([2]; 1 µM, 12 h): 23519.76 GFP+-cells/confluence ∙ 1000; Mean NFκB response ([2]; 1 µM, 15 h): 31227.07 GFP+-cells/confluence ∙ 1000; Mean NFκB response ([2]; 1 µM, 18 h): 36753.27 GFP+-cells/confluence ∙ 1000; Mean NFκB response ([2]; 1 µM, 21 h): 40136.06 GFP+-cells/confluence ∙ 1000; Mean NFκB response ([2]; 1 µM, 24 h): 43256.26 GFP+-cells/confluence ∙ 1000; ATF6 activity (tunicamycin-induced endoplasmic reticulum stress) ([3]; Hela ATF6 reporter cells, tunicamycin 100 ng/mL, 18 h, compounds at recommended concentrations, n = 5): failed to reduce ATF6 activity; activity at 1 µM [3]: 92%; Metabolic activity [MA] (HEK293T cells [4]): 1.01 (2×) and 0.90 and 0.92 and 0.96 and 0.97 and 1.05 and 1.00; Growth rate [GR] (HEK293T cells [5]): 0.70 and -0.18 and 0.97 and 1.02 and 1.09 and 1.00 and 1.07 and 0.46 and 0.96 and -0.95; Apoptosis induction [AI] (HEK293T cells [6]): 0.59 and 0.50 and 0.47 and 0.71 and 1.22 and 1.35
